Assay results: patent publication US20080167330A1, “Carbamoylsulphoximides as protein kinase inhibitors” (priority 2006, published 2008)

Columns and labels:
Assay type in all cases: biochemical
[1] = biological target: T1, KDR (VEGFR2) (Homo sapiens, UniProt P35968); experiment: KDR kinase assay; conditions: 8 μM ATP
T1 construct: GST; purchased ProQinase GmbH, Freiburg; host or cells: baculovirus-infected insect cells (Sf9)
Method: Recombinant KDR kinase-GST fusion proteins purified from baculovirus-infected insect cells (Sf9), were purchased from ProQinase GmbH, Freiburg. Poly(Glu4Tyr)n, which was used as kinase substrate, was purchased from Sigma.
KDR kinase was incubated in the presence of various concentrations of test substances (0 μM, and within the range 0.01-100 μM) in 40 μL of assay buffer [40 mM Tris/HCl pH 7.5, 10 mM MgCl2, 1 mM MnCl2, 1.0 mM dithiothreitol, 8 μM ATP, 0.025% PEG20000, 24 ng/μL poly(Glu4Tyr)n, 0.2 μCi/measurement point ^33P-gamma ATP, 1.25% dimethyl sulphoxide] at 22° C. for 10 min. The reaction was stopped by adding EDTA solution (250 mM, pH 7.5, 15 μl/measurement point). 15 μl of each reaction mixture were loaded onto P30 filter strips (from Wallac), and non-incorporated ^33P-ATP was removed by washing the filter strips three times in 0.5% strength phosphoric acid for 10 min each time.
(§1) After the filter strips had been dried at 70° C. for 1 hour, the filter strips were covered with scintillator strips (MeltiLex™ A, from Wallac) and baked at 90° C. for 1 hour. The amount of incorporated ^33P (substrate phosphorylation) was determined by scintillation measurement in a gamma radiation counter (Wallac).
(§2) The measured data were normalized to 0% inhibition (enzyme reaction without inhibitor) and 100% inhibition (all assay components except enzyme). The IC50 values were determined by means of a 4-parameter fit using the company's own software.

[2] = biological target: T2, CDK2/CycE (Homo sapiens, UniProt P24941); experiment: CDK2/CycE kinase assay; conditions: 0.5 μM ATP
T2 construct: GST; purchased ProQinase GmbH, Freiburg; host or cells: baculovirus-infected insect cells (Sf9)
Method: Recombinant CDK2- and CycE-GST fusion proteins, purified from baculovirus-infected insect cells (Sf9), were purchased from ProQinase GmbH, Freiburg. The histone IIIS used as kinase substrate was purchased from Sigma. CDK2/CycE (1.25 ng/μL) was incubated in the presence of various concentrations of test substances (0 μM, and within the range 0.01-100 μM) in 40 μL of assay buffer [50 mM Tris/HCl pH 8.0, 10 mM MgCl2, 0.1 mM Na ortho-vanadate, 1.0 mM dithiothreitol, 0.5 μM ATP, 0.2% PEG20000, 10 μM histone IIIS, 0.2 μCi/measurement point ^33P-gamma ATP, 0.05% NP40, 1.25% dimethyl sulphoxide] at 22° C. for 10 min. The reaction was stopped by adding EDTA solution (250 mM, pH 8.0, 15 μl/measurement point).
15 μl of each reaction mixture were loaded onto P30 filter strips (from Wallac), and non-incorporated ^33P-ATP was removed by washing the filter strips three times in 0.5% strength phosphoric acid for 10 min each time.
as §1, §2

[3] = test system: Aurora C, CDK1/CycB, CDK2/CycE, KDR (VEGFR2); experiment: various kinase assays taken together (selectivity profile); conditions: comparison across the kinase assays, in words
Method: The compounds of Examples 1 to 22 were tested for their inhibitory effect in the various kinase assays and in a proliferation assay with MCF7 human breast tumour cells (Tab. 1). […] Exemplary compounds 1-8, 10-12, 15, 17-20 inhibit the proliferation of human MCF7 breast tumour cells with half-maximum concentrations in the submicromolar range.

T1 sequence (P35968 807-1356 limits assumed): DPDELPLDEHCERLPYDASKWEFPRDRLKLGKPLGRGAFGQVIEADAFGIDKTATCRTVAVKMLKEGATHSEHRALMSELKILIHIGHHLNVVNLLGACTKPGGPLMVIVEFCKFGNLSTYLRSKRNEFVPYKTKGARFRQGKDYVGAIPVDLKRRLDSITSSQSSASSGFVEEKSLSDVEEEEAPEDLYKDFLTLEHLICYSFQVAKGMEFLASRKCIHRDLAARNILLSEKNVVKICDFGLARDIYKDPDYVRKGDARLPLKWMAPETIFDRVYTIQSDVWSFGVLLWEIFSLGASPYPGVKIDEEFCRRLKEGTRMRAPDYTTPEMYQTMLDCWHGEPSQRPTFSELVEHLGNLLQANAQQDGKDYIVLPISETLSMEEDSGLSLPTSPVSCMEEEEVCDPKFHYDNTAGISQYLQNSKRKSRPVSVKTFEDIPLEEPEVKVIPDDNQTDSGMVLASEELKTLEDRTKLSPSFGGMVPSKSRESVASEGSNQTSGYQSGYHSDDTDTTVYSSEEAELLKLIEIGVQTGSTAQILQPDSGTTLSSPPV

| Compound | IC50 [1] [nM] | IC50 [2] [nM] | selectivity profile [3] |
| --- | --- | --- | --- |
| C[C@@H](Nc1nc(Nc2cccc(NC(=O)N=S(C)(C)=O)c2)ncc1Br)C(C)(C)O [Example 1, N-({3-[(5-Bromo-4-{[(R)-2-hydroxy-1,2-dimethylpropyl]amino}pyrimidin-2-yl)amino]phenyl}carbamoyl)-S,S-dimethylsulphoximide] | 170 | 9 | – |
| C[C@@H](Nc1nc(Nc2ccc(NC(=O)N=S(C)(C)=O)cc2)ncc1Br)C(C)(C)O [Example 2, N-({4-[(5-Bromo-4-{[(R)-2-hydroxy-1,2-dimethylpropyl]amino}pyrimidin-2-yl)-amino]phenyl}carbamoyl)-S,S-dimethylsulphoximide] | 230 | 10 | – |
| C[C@@H](O)[C@@H](C)Nc1nc(Nc2ccc(NC(=O)N=S(C)(C)=O)cc2)ncc1Br [Example 3, N-({4-[(5-Bromo-4-{[(1R,2R)-2-hydroxy-1-methylpropyl]amino}pyrimidin-2-yl)amino]phenyl}carbamoyl)-S,S-dimethylsulphoximide] | 120 | 5 | – |
| C[C@@H](O)[C@@H](C)Oc1nc(Nc2ccc(NC(=O)N=S(C)(C)=O)cc2)ncc1Br [Example 4, N-({4-[(5-Bromo-4-{[(1R,2R)-2-hydroxy-1-methylpropyl]oxy}pyrimidin-2-yl)amino]phenyl}carbamoyl)-S,S-dimethylsulphoximide] | 160 | 5 | – |
| C[C@@H](O)[C@@H](C)Nc1nc(Nc2cccc(NC(=O)N=S(C)(C)=O)c2)ncc1Br [Example 5, N-({3-[(5-Bromo-4-{[(1R,2R)-2-hydroxy-1-methylpropyl]amino}pyrimidin-2-yl)amino]phenyl}carbamoyl)-S,S-dimethylsulphoximide] | 63 | 5 | – |
| C[C@@H](O)[C@@H](C)Oc1nc(Nc2cccc(NC(=O)N=S(C)(C)=O)c2)ncc1Br [Example 6, N-({3-[(5-Bromo-4-{[(1R,2R)-2-hydroxy-1-methylpropyl]oxy}pyrimidin-2-yl)amino]phenyl}carbamoyl)-S,S-dimethylsulphoximide] | 130 | 7 | – |
| C[C@@H](O)[C@@H](C)Nc1nc(Nc2ccc(F)c(NC(=O)N=S(C)(C)=O)c2)ncc1Br [Example 7, N-({5-[(5-Bromo-4-{[(1R,2R)-2-hydroxy-1-methylpropyl]amino}pyrimidin-2-yl)amino]-2-fluorophenyl}carbamoyl)-S,S-dimethylsulphoximide] | 300 | 3 | – |
| Cc1ccc(Nc2ncc(Br)c(N[C@H](C)[C@@H](C)O)n2)cc1NC(=O)N=S(C)(C)=O [Example 8, N-({5-[(5-Bromo-4-{[(1R,2R)-2-hydroxy-1-methylpropyl]amino}pyrimidin-2-yl)amino]-2-methylphenyl}carbamoyl)-S,S-dimethylsulphoximide] | 130 | 12 | – |
| COc1ccc(Nc2ncc(Br)c(N[C@H](C)[C@@H](C)O)n2)cc1NC(=O)N=S(C)(C)=O [Example 10, N-({5-[(5-Bromo-4-{[(1R,2R)-2-hydroxy-1-methylpropyl]amino}pyrimidin-2-yl)amino]-2-methoxyphenyl}carbamoyl)-S,S-dimethylsulphoximide] | 320 | 20 | – |
| COc1cc(Nc2ncc(Br)c(N[C@H](C)[C@@H](C)O)n2)ccc1NC(=O)N=S(C)(C)=O [Example 11, N-({4-[(5-Bromo-4{[(1R,2R)-2-hydroxy-1-methylpropyl]amino}pyrimidin-2-yl)amino]-2-methoxyphenyl}carbamoyl)-S,S-dimethylsulphoximide] | 96 | 19 | – |
| C[C@@H](O)[C@@H](C)Nc1nc(Nc2ccc(Cl)c(NC(=O)N=S(C)(C)=O)c2)ncc1Br [Example 12, N-({5-[(5-Bromo-4-{[(1R,2R)-2-hydroxy-1-methylpropyl]amino}pyrimidin-2-yl)amino]-2-chlorophenyl}carbamoyl)-S,S-dimethylsulphoximide] | 350 | 9 | – |
| C[C@@H](O)[C@@H](C)Nc1nc(Nc2ccc(NC(=O)N=S(C)(C)=O)cc2)ncc1C(F)(F)F [Example 15] | 1100 | 9 | CDK-selective |
| CS(C)(=O)=NC(=O)Nc1ccc(Nc2ncc(Br)c(Nc3ccc4[nH]cnc4c3)n2)cc1 [Example 16, N-[(4-{[4-(1H-Benzimidazol-5-ylamino)-5-bromopyrimidin-2-yl]amino}phenyl)-carbamoyl]-S,S-dimethylsulphoximide] | 64 | 330 | preferential KDR inhibition |
| C[C@@H](O)[C@@H](C)Nc1nc(Nc2cccc(C(=O)N=S(C)(C)=O)c2)ncc1Br [Example 17, N-{3-[(5-Bromo-4-{[(1R,2R)-2-hydroxy-1-methylpropyl]amino}pyrimidin-2-yl)amino]benzoyl}-S,S-dimethylsulphoximide] | 330 | 9 | CDK-selective |
| C[C@@H](O)[C@@H](C)Nc1nc(Nc2ccc(C(=O)N=S(C)(C)=O)cc2)ncc1Br [Example 18, N-{4-[(5-Bromo-4-{[(1R,2R)-2-hydroxy-1-methylpropyl]amino}pyrimidin-2-yl)amino]benzoyl}-S,S-dimethylsulphoximide] | 61 | 9 | – |
| C[C@@H](Nc1nc(Nc2ccc(C(=O)N=S(C)(C)=O)cc2)ncc1Br)C(C)(C)O [Example 19, N-{4-[(5-Bromo-4-{[(R)-2-hydroxy-1,2-dimethylpropyl]amino}pyrimidin-2-yl)amino]benzoyl}S,S-dimethylsulphoximide] | 120 | 11 | – |
| C[C@@H](O)[C@@H](C)Oc1nc(Nc2ccc(C(=O)N=S(C)(C)=O)cc2)ncc1Br [Example 20, N-{4-[(5-Bromo-4-{[(1R,2R)-2-hydroxy-1-methylpropyl]oxy}pyrimidin-2-yl)amino]benzoyl}-S,S-dimethylsulphoximide] | 96 | 12 | – |
